The values that follow are results of earlier work, collected in patent US20100261663A1, “Compositions Containing Harpagoside and Paeoniflorin and Methods for Treatment of Conditions Associated with Pain, Inflammation, Arthritis and Symptoms Thereof” (Restorative Remedies, priority 2009, published 2010).

The test system of series [1] is Rodent-mouse.
Series [2] relates to Bacillus subtilis. The conditions noted are these: Bacillus subtilis rec assay.
Series [3] deals with Salmonella. The settings on record: Salmonella microsome reversion assay.
For series [4] the following is noted: rats; for Cumulative biliary excretion: within 24 h.
Series [5] deals with intestinal bacteria in rat feces.
For series [6] the following is noted: mice plasma, oral peony root extract.
In series [7] the test system is mice.
For series [8] the following is noted: for Cmax: human whole blood.
For series [9], the system named is human intestinal microflora.
Experiment in series [10]: not given
This is another data set of the same source.

For series [11] the following is noted: everted sac, at 60 min.
Series [12] deals with patients suffering from osteoarthritis of the knee and hip. The settings on record: 4 months.
The subject of series [13] is patients with hip and knee osteoarthritis. The settings on record: after four months; extract 2,610 mg per day, diacerhein 100 mg per day; no significant differences.
Setting [14] is: 5 mg kg^−1 intravenous, within 72 h.
[15] abbreviates: single oral 43.8 mg harpagoside/600 mg extract (study 1).
[16] abbreviates: single oral 100 mg harpagoside/400 mg extract (study 1).
[17] abbreviates: single oral 108 mg harpagoside/1200 mg extract (study 3).
The mark [18] stands for this setting: single oral 150 mg harpagoside/600 mg extract (study 2).
[19] abbreviates: single oral 162 mg harpagoside/1800 mg extract (study 3).
The mark [20] stands for this setting: single oral 200 mg harpagoside/800 mg extract (study 1).

Read-outs that look alike come from different tables or passages of the source.

As a reminder, the LD50 is the dose at which mortality reaches 50%. As usually defined, the Vdss is a proportionality between amount in the body and measured concentration, not a real space. `C[C@@]12C[C@@]3(O)O[C@@H](O1)[C@]1(COC(=O)c4ccccc4)[C@H]3C[C@@]12O[C@@H]1O[C@H](CO)[C@@H](O)[C@H](O)[C@H]1O` [paeoniflorin, 5β-[(Benzoyloxy)methyl]tetrahydro-5-hydroxy-2-Methyl-2,5-methano-1H-3,4-dioxacyclobuta[cd]pentalen-1α(2H)-yl-β-D-glucopyranoside]: the 50% lethal dose (LD50) in series [1] (Intraperitoneal) is recorded as 3530 mg/kg; in [1] (Intravenous) it was 9530 mg/kg. For the same compound, the “Toxic Effects” value in series [1] (Intraperitoneal) is “Behavioral-somnolence (general depressed activity)”; in series [1] (Intravenous), “Behavioral-sleep. Behavioral-somnolence (general depressed activity)”. Moreover, the mutagenicity entry in series [2] and in series [3] was “nonmutagenic” each time. Besides, the “metabolism in the gut wall” value (AUC after intraperitoneal 0.5 mg kg^−1 versus intraportal or intravenous) is on record as “not metabolized in the gut wall”. The hepatic extraction ratio result (intraportal versus intravenous, 0.5 and 5 mg kg^−1) was “negligible”. Further, the “mean pulmonary extraction ratio” value (venous versus arterial AUC after intravenous 0.5 mg kg^−1) is on record as 0.06. For the same compound, the Cumulative biliary excretion is 6.9 % of the dose in series [4] (0.5 mg kg^−1 intravenous) and 1.3 % of the dose in series [4] (0.5 mg kg^−1 oral). For the same compound, the cumulative fecal excretion is on record as 0.22 % of the dose in series [4] (setting [14]) and 0.08 % of the dose in series [4] (5 mg kg^−1 oral, within 48 h). The cumulative urinary excretion in [4] (setting [14]) is reported as 50.5 % of the dose; in series [4] (5 mg kg^−1 oral, within 48 h), 1.0 % of the dose. Moreover, the CLtot in series [4] (intravenous 0.5 mg kg^−1) was 26.1 mL/min/kg; in [4] (intravenous 2.0 mg kg^−1) it was 31.2 mL/min/kg; in series [4] (intravenous 5.0 mg kg^−1), 30.3 mL/min/kg. In addition, the distribution volume (Vdss) is 0.332 L/kg in [4] (intravenous 0.5 mg kg^−1), 0.384 L/kg in series [4] (intravenous 2.0 mg kg^−1) and 0.423 L/kg in series [4] (intravenous 5.0 mg kg^−1). Moreover, the mean terminal half-life in [4] (intravenous 0.5 mg kg^−1) was 0.183 h; in series [4] (intravenous 2.0 mg kg^−1), 0.165 h; in series [4] (intravenous 5.0 mg kg^−1), 0.21 h. In addition, the metabolites formed result in series [5] was “paeonimetabolin-1 (PM-1) and thio-paeonimetabolin-1 (PT-PM-1)”. In addition, the “mean terminal half-life (t(1/2))” value in [6] is 1.569 h.
What is called Cmax is the highest concentration seen after dosing. Broadly, the AUC(0-t) is exposure summed from dosing to a finite time, without extrapolation to infinity. With `C[C@]1(OC(=O)/C=C/c2ccccc2)C[C@@H](O)[C@]2(O)C=CO[C@@H](O[C@@H]3O[C@H](CO)[C@@H](O)[C@H](O)[C@H]3O)[C@@H]21` [harpagoside], the LD50 entry in series [7] is “greater than 13.5 grams per kg of body weight”. For the same compound, the “harpagoside in whole blood” value in [8] (after 600 mg Harpagophytum extract in study 3 (54 mg harpagoside), oral) is given as “no harpagoside was detected”. For the same compound, in series [8] (setting [15]), the highest concentration (Cmax) is recorded as 15.4 ng/mL and the tmax was 2 h. For the same compound, in [8] (setting [16]), the peak concentration (Cmax) is reported as 16.4 ng/mL, the “AUC(0-t)” value was 65.9 ng·h/mL, the “AUC(0-∞)” value is 82 ng·h/mL and the CL was 20.3 L/min. In addition, in series [8] (setting [16]), the “Terminal t1/2” value was 3.7 h and the tmax is recorded as 2.5 h. In series [8] (setting [17]), the Cmax is recorded as 8.2 ng/mL, the “AUC(0-t)” value is 17.2 ng·h/mL and the tmax was 1.3 h. In series [8] (setting [18]), the maximum concentration (Cmax) is listed as 32.2 ng/mL, the “AUC(0-t)” value was 157.5 ng·h/mL, the “AUC(0-∞)” value is 226 ng·h/mL and the CL is on record as 12.2 L/min. In series [8] (setting [18]), the “Terminal t1/2” value is 5.6 h and the tmax is 1.3 h. In [8] (setting [19]), the peak concentration (Cmax) is given as 27.8 ng/mL, the “AUC(0-t)” value was 160.5 ng·h/mL, the “AUC(0-∞)” value is 187.9 ng·h/mL and the CL is listed as 14.4 L/min. In [8] (setting [19]), the “Terminal t1/2” value is on record as 4.4 h and the tmax is reported as 1.8 h. For the same compound, in [8] (setting [20]), the Cmax is reported as 50.1 ng/mL, the “AUC(0-t)” value is 225.7 ng·h/mL, the “AUC(0-∞)” value is 355.8 ng·h/mL and the CL is 9.4 L/min. Besides, in [8] (setting [20]), the “Terminal t1/2” value is 6.4 h and the tmax is given as 2.5 h. Moreover, the clearance result in [8] (overall, oral) was “about 15 L/min”. In addition, the transformation product result in series [9] is “transformed into the pyridine monoterpene alkaloid aucubinine B”. For the same compound, the “biological activity at acidic pH of gastric secretions” value in series [10] is listed as “significantly reduced”.
As for `CCC1(c2ccccc2)C(=O)NC(=O)NC1=O` [phenobarbital], the intestinal permeability in [11] is recorded as 63.1%.
Turning to `CC(=O)Oc1cccc2c1C(=O)c1c(OC(C)=O)cc(C(=O)O)cc1C2=O` [diacerhein], in series [12], the “diarrhea, patients” value is on record as 26.7%. Further, the “Spontaneous pain (10 cm visual analogue scale)” value in series [12] (Harpadol 6 capsules/day, diacerhein 100 mg/day, no difference between treatments) is listed as “significant improvement”. Further, the Lequesne functional index entry in series [12] (no statistical difference between treatments) was “progressive and significant reduction”. Further, the osteoarthritis symptoms entry in series [13] is recorded as “considerable improvements”.
